What was measured:
Format in all cases: cell-based
HSV-1 [1] = experiment: HSV-1 cytopathic effect in HEp-2 cells under microscope; conditions: 24 h, different concentrations, versus DMSO
Protocol: The HSV-1 virus and the indicated concentration of compounds were added and incubated for 24 h. After washing way the virus with PBS, image was taken under a compound microscope.

HSV-1 [2] = experiment: Immunofluorescence and confocal microscopy of ICP0; conditions: 10 μM, HSV-1 MOI 1.0, 30 h
Protocol: The HEp-2 cells were infected with HSV-1 at an MOI of 1.0 for 30 h along with the indicated compounds and control. The no-virus control (A), vehicle DMSO treated (B) and SD29-14 10 μM treated (C) cells were fixed with 4% paraformaldehyde and stained with anti-ICP0-FITC (green) and DAPI for DNA (blue) in the nucleus. The slides were observed under a Nikon confocal microscope (60× magnification lens) and pictures were taken to show infected cells (green) and total cells (DAPI). All scale bars correspond to 20 μm. The imaging experiments were performed three independent times, and the results shown represent one of the three experiments. (D) Quantification of fluorescent cells by Image based cell sorting in a Cellometer (Nexcelom Vision). […] The cells were prepared by immunostaining with ICP0 antibody after 24-h incubation with the indicated compounds. The total cell counts were 1.01×10^6/ml, 4.69×10^6/ml, and 5.36×10^6/ml for DMSO, SD29-14 (10 μM), and SD29-14 (100 μM) respectively. The numbers show the mean±SE of three replicates.
Hep-2 cells were grown to about 80% confluency in 12 well plate and the cells were co-infected with HSV-1 at an MOI of 1.0 for 30 h along with the indicated inhibitor compounds and control. The cells were fixed at room temperature with 4% paraformaldehyde-PBS for 15 minutes and then permeabilized at room temperature by 0.5% Triton X-100-PBS (pH 7.4) for 10 min. […]

RACK1 = molecular target: T1, RACK1 (Homo sapiens, UniProt P63244); experiment: RACK1 protein western blot in HSV-1 infected HEp-2 cells; conditions: pre-treated 24 hours at 100 μM; 24 h after HSV-1 infection
T1 construct: endogenous in cells; host or cells: HEp-2 cells (human laryngeal carcinoma line), virus-infected
Protocol: The virus used in this diagram is an HSV-1 F strain expressing luciferase (R8411 mutant) under the control of the ICP27 promoter and was a gift from Prof. Bernard Roizman (University of Chicago). HEp-2 cells were grown to 80-90% confluency in Dulbecco's Modified Eagle's medium (DMEM) supplemented with 10% fetal calf serum (PCS) and 1% penicillin-streptomycin (PS) and fungicide. The HSV-1 virus and the indicated concentration of compound(s) were added and incubated for 24 h (A of FIG. 13 and B of FIG. 13) and for 48 h in panel C samples. The luciferase signals were imaged and quantified in a Perkin Elmer IVIS Spectrum Imaging system. […] Three replicates from two separate experiments were combined to generate the average and the standard error bar. […] The compound(s) inhibit Y248 phosphorylation of RACK1 protein.
Proteins were separated by SDS-PAGE (25 μg loaded in each lane), transferred to nitrocellulose membranes (Amersham Inc., Piscataway, N.J., USA), and blocked with 5% nonfat milk for 60 min at room temperature. Membranes were incubated overnight at 4° C. with primary antibody, followed by incubation with a horseradish peroxidase-coupled secondary antibody and detection with enhanced chemiluminescence (Pierce, Rockford, Ill., USA), according to standard methods. […]

## Nn1c(S)nnc1-c1cc(Cl)cc(Cl)c1 [SD29-14]
HSV-1 [1]
  cytopathic effect of HSV-1: do not show the cytopathic effect
HSV-1 [2]
  ICP0 protein expression (immunofluorescence): effectively eliminated any expression of ICP0 protein

## Nn1c(S)nnc1-c1ccc(F)cc1 [SD-29]
RACK1
  production of RACK1: reduced the production of RACK1
